One data set deals with BALB/c 3T3 cells. Briefly: In vitro 3T3 NRU phototoxicity assay OECD 432. The settings on record: for IC50: Mus musculus, BALB/c3T3, light or radiation study. It is filed as cell-based, mouse. The protocol:
(§1) The phototoxicity assay used 3T3 cells as test system. The aim of this study was to obtain the Photo-Irritation Factor (PIF) for the postbiotic composition of the invention. 3T3 cells were treated with the postbiotic composition of the invention at eight different concentrations for 1 hour. Thereafter, half of the samples were exposed to simulated solar irradiation, whereas the other half was kept in the dark. Cell viability was calculated after 24 hours of incubation by means of the neutral red assay. The following reagents were used for these assays. Table 3 Table 3 Reagents used in this example
(§2) Balb/c 3T3 cells were used as a test system. Once thawed, cells were grown as a monolayer in DMEM culture medium supplemented with 10% Newborn Calf Serum (NCBS) and antibiotics (100 U/mL penicillin and 100 µg/mL streptomycin). The cells were incubated under standard culture conditions (37°C ± 2°C and 5% CO2/air), changing the medium every 2-3 days and sub-cultivating before reaching 80% confluency. According to the guideline, the 3T3 cells used in this study were tested for mycoplasma and only mycoplasma-free cells were used throughout the study.
(§3) To prepare the system, after thawing, cells were propagated from stock cultures and grown in culture medium for two weeks. For each assay, when cell density reached 80% confluence, they were trypsinized and counted using trypan blue strain. The day before the exposition to the postbiotic composition of the invention, the cells were tripsinized and counted. A suspension of 100,000 cells/mL was prepared and 200 µL of the suspension were added to each well in 96-well plates (20,000 cells/well), except in the peripheral wells.
(§4) According to the OECD Guideline for testing of chemicals: In Vitro 3T3 NRU phototoxicity test, protocol No 432 (2019), the maximum concentration to be analyzed is 1 mg/mL. As the cytotoxicity assay exposed the cells to the composition for 24 hours, and the phototoxicity assay includes an exposition of 1 hour, it was decided to perform the phototoxicity test starting from 1 mg/mL. From this concentration, eight concentrations were prepared in 1/3 dilutions. This solution was prepared in Hank's with Ca2+ and Mg2+ and HEPES. (C1) 1 mg/mL; (C2) 0.33 mg/mL; (C3) 0.11 mg/mL; (C4) 0.037 mg/mL; (C5) 0.0123 mg/mL; (C6) 0.0041 mg/mL; (C7) 0.00137 mg/mL; and (C8) 0.000457 mg/mL SDS was used as a positive control, 8 concentrations were prepared 400 µg/mL; 200 µg/mL; 100 µg/mL; 50 µg/mL; 25 µg/mL; 12.5 µg/mL; 6.25 µg/mL; and 3.125 µg/mL
(§5) As the exposition time involved in the phototoxicity test was shorter, it was decided to start this assay from highest concentration allowed: 1 mg/mL. Seven more concentrations were prepared in 1/3 dilutions. 3T3 cells were seeded at 20,000 cells/well in 96-well plates. Cells were exposed to the eight concentrations of the postbiotic composition of the invention defined above for 1 hour at 37°C and 5% CO2. Two 96-well plates were prepared for the postbiotic composition of the invention, the postbiotic composition and reference control (CPZ). One plate of each condition (+IRR) was irradiated for 52 minutes at 5 J/cm^2 while the other plates (- IRR) were kept in the dark for the same amount of time. Then, culture media was removed, cells were washed with Hank's without phenol red and 100 µL of neutral red were added to each well. Cells were incubated for 3 hours at 37°C and 5% CO2 and then were washed again. Finally, the neutral red was solubilized by adding 100 µL to each well of a solution of Acetic acid/Ethanol. Plates were incubated 10 minutes at room temperature and absorbance at 540 nm was measured.
(§6) Once obtained the cytotoxic results, the phototoxicity assay for the postbiotic composition of the invention was performed using 1 mg/mL as the highest dose. […] Therefore, it was decided to use the highest concentration allowed according to OECD 432 guideline. In total, 8 concentrations were prepared as disclosed in the material and methods section above. […]

The nature of data set [1]: In vitro 3T3 NRU phototoxicity assay OECD 432. Particulars: mouse, reference item; for viability at 1 h, 200 µg/mL: C1 = 200 µg/mL; for viability at 1 h, 66.67 µg/mL: C2 = 66.67 µg/mL; for viability at 1 h, 22.22 µg/mL: C3 = 22.22 µg/mL; for viability at 1 h, 7.407 µg/mL: C4 = 7.407 µg/mL; for viability at 1 h, 2.47 µg/mL: C5 = 2.47 µg/mL; for viability at 1 h, 0.823 µg/mL: C6 = 0.823 µg/mL; for viability at 1 h, 0.274 µg/mL: C7 = 0.274 µg/mL; for viability at 1 h, 0.091 µg/mL: C8 = 0.091 µg/mL. It is filed as cell-based, mouse. The method, then:
as §1, §2, §3, §4, §5, §6

The next data set concerns 3T3 cells. Briefly: Dose range finding (cytotoxicity assay, MTT). The format is cell-based, mouse. Particulars: 3T3, 24h. The protocol: - Prior to the phototoxicity assay, solubility of the composition was determined, it was decided to start from 20 mg/mL in culture media. Starting from this concentration, a dose range finding experiment (cytotoxicity assay) was performed. Starting from 20 mg/mL in culture media, eight concentrations were prepared in 1/10 dilutions: 20 mg/mL; 2 mg/mL; 0.2 mg/mL; 0.02 mg/mL; 0.002 mg/mL; 0.0002 mg/mL; 0.00002 mg/mL; and 0.000002 mg/mL
Starting from the limit of solubility obtained (20 mg/mL) a dose range finding experiment was set up in order to determine the IC50 value (if obtained). 3T3 cells were seeded at 10,000 cells/well in 96-well plates. Seven more concentrations were prepared following a 1/10 dilution factor. Cells were exposed to the postbiotic composition of the invention for 24h. SDS was used as positive control and viability was determined by means of MTT method.
To establish the concentrations to be tested in the phototoxicity assay, it was decided to check the postbiotic composition of the invention in a dose range finding assay using SDS as a positive control. Starting from 20 mg/mL dissolved in culture media it was decided to prepare the concentrations disclosed above in the materials and methods section. Using the Graphpad Prism 8 statistical software, we calculated the IC50 values by means of a 4-parameter logistic curve (4PL). This equation uses log(dose) values.

The nature of a further data set: in vitro. The settings on record: human.

These results are taken from patent EP4501339A1, “POSTBIOTIC COMPOSITION FOR SKIN DISORDERS AND COSMETIC USE” (Igen Biolab Group AG, priority 2023, dated 2025).

Converted amounts (≈) assume the structure as drawn.

As a reminder, the IC50 is the concentration that inhibits the measured activity by half. The low end stands for higher potency, the high end for lower potency. One may read the viability as a read-out of living cells in per cent, often relative to untreated cells. In the case of `CN(C)CCCN1c2ccccc2Sc2ccc(Cl)cc21` [CPZ, Chlorpromazine], in the data set on BALB/c 3T3 cells (irradiated plates), the IC50 was found to be 0.974 µg/mL (≈ 3.05 µM). This compound also registered an IC50 with BALB/c 3T3 cells (non-irradiated plates) of 31.4 µg/mL (≈ 98.5 µM). For the same compound, in the data set on BALB/c 3T3 cells (mouse, 1 h), the “MPE (∑i = 1^n wi PEci)/(∑i = 1^n wi)” value was determined as 0.401 and the “PIF (IC50(−Irr))/(IC50(+Irr))” value is listed as 32.303. In addition, in data set [1] (+IRR (5 J/cm^2)), the viability at 1 h, 200 µg/mL was 2.57%; the viability at 1 h, 66.67 µg/mL is 0.32%; the viability at 1 h, 22.22 µg/mL worked out at 1.62%; the viability at 1 h, 7.407 µg/mL turned out to be 1.75%. Also, in data set [1] (+IRR (5 J/cm^2)), the viability at 1 h, 2.47 µg/mL was found to be 1.31%; the viability at 1 h, 0.823 µg/mL was 83.4%; the viability at 1 h, 0.274 µg/mL came to 104%; the viability at 1 h, 0.091 µg/mL stood at 103%. In data set [1] (-IRR), the viability at 1 h, 200 µg/mL came out at 0.41%; the viability at 1 h, 66.67 µg/mL was 0.01%; the viability at 1 h, 22.22 µg/mL was 97.8%; the viability at 1 h, 7.407 µg/mL is 104%. In data set [1] (-IRR), the viability at 1 h, 2.47 µg/mL is 105%; the viability at 1 h, 0.823 µg/mL was found to be 105%; the viability at 1 h, 0.274 µg/mL was found to be 104%; the viability at 1 h, 0.091 µg/mL turned out to be 102%.
Consider `CCCCCCCCCCCCOS(=O)(=O)[O-].[Na+]` [SDS, Sodium dodecyl sulphate], for which the “positive control result in dose range finding” value in the data set with 3T3 cells was “within the known range”. For the same compound, the viability in “in vitro” was 2%.
